Laboratory results: BigSolDB 2.1

C[C@H]1[C@H](OC(=O)CCC(=O)O)O[C@@H]2O[C@@]3(C)CC[C@H]4[C@H](C)CC[C@@H]1[C@@]24OO3
solubility (mole fraction)
Conditions	278.15 K	283.15 K	288.15 K	293.15 K	298.15 K	303.15 K	308.15 K	313.15 K	318.15 K
in ethanol	0.00528	0.00575	0.00636	0.00709	0.00782	0.00854	0.00939	0.0102	0.0111
in isopropanol	0.00285	0.00336	0.00392	0.00461	0.00527	0.00609	0.00698	0.00796	0.00898
in methanol	0.00497	0.00538	0.00606	0.00677	0.00747	0.00817	0.00906	0.00994	0.0108
in propylene glycol	0.001	0.00123	0.00148	0.00176	0.00205	0.00237	0.00279	0.0032	0.00366
in water	9.48e-06	1.28e-05	1.66e-05	2.16e-05	2.71e-05	3.51e-05	4.44e-05	5.54e-05	6.94e-05
